Experimental data published in PubChem BioAssay (NCI).
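Five compound concentrations were applied to cells in 96-well plates for 48 hours; endpoints were derived by simple linear interpolation of the resulting dose-response curve. TGI: concentration producing complete growth inhibition.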

Tests used:
Assay in all cases: NCI tumour cell line growth inhibition, 48 h
OVCAR-3 ovarian = system: OVCAR-3 ovarian
HT29 colon = system: HT29 colon
U251 CNS = system: U251 CNS
CCRF-CEM leukemia = system: CCRF-CEM leukemia
HOP-92 NSCLC = system: HOP-92 NSCLC
NCI-H226 lung = system: NCI-H226 lung
OVCAR-5 ovarian = system: OVCAR-5 ovarian
SK-OV-3 ovarian = system: SK-OV-3 ovarian
TK-10 renal = system: TK-10 renal
HL-60(TB) leukemia = system: HL-60(TB) leukemia
A549 NSCLC = system: A549 NSCLC
RPMI-8226 leukemia = system: RPMI-8226 leukemia
RXF 393 renal = system: RXF 393 renal
DU-145 prostate = system: DU-145 prostate
SW-620 colon = system: SW-620 colon
MOLT-4 leukemia = system: MOLT-4 leukemia
NCI-H460 lung = system: NCI-H460 lung
SF-539 CNS = system: SF-539 CNS
UACC-62 melanoma = system: UACC-62 melanoma

SMILES	TGI (OVCAR-3 ovarian)	TGI (HT29 colon)	TGI (U251 CNS)	TGI (CCRF-CEM leukemia)	TGI (HOP-92 NSCLC)	TGI (NCI-H226 lung)	TGI (OVCAR-5 ovarian)	TGI (SK-OV-3 ovarian)	TGI (TK-10 renal)	TGI (HL-60(TB) leukemia)	TGI (A549 NSCLC)	TGI (RPMI-8226 leukemia)	TGI (RXF 393 renal)	TGI (DU-145 prostate)	TGI (SW-620 colon)	TGI (MOLT-4 leukemia)	TGI (NCI-H460 lung)	TGI (SF-539 CNS)	TGI (UACC-62 melanoma)
Brc1ccc2[nH]cc(-c3csc(-c4ccccn4)n3)c2c1	> 38 µM	38.7 µM	36.4 µM	> 100 µM	> 95.8 µM	34.8 µM	> 100 µM	> 100 µM	> 100 µM	> 100 µM	> 70.3 µM	63.7 µM	18.7 µM	> 86.5 µM	98.6 µM	> 53.6 µM	22.4 µM	> 100 µM	–
CN(C)C(Cc1cnc[nH]1)C(=O)N1CCCC1C(N)=O (configuration not stated)	> 100 µM	> 100 µM	> 100 µM	> 100 µM	> 100 µM	> 100 µM	> 100 µM	> 100 µM	> 100 µM	> 100 µM	> 100 µM	> 100 µM	> 100 µM	> 100 µM	> 100 µM	> 100 µM	> 100 µM	–	> 100 µM
CCOC(=O)C1(C(N)=O)C(=O)c2ccncc2C1=O (configuration not stated)	> 100 µM	> 100 µM	> 100 µM	> 100 µM	> 100 µM	> 100 µM	> 100 µM	> 100 µM	–	> 100 µM	> 100 µM	> 100 µM	> 100 µM	> 100 µM	> 100 µM	–	> 100 µM	> 100 µM	> 100 µM
COc1cc(-c2cn(S(=O)(=O)c3ccc(C)cc3)c3ccccc23)nc(-c2cn(S(=O)(=O)c3ccc(C)cc3)c3ccccc23)n1	> 100 µM	2 µM	13.8 µM	24.7 µM	> 60.9 µM	> 100 µM	19.6 µM	> 100 µM	> 100 µM	5.24 µM	> 48.8 µM	> 100 µM	> 100 µM	1.85 µM	> 56.9 µM	> 22.5 µM	> 100 µM	0.592 µM	> 100 µM
CCC(C#N)(c1ccccc1)N(CCc1ccccc1)C(=O)c1ccccc1 (configuration not stated)	> 100 µM	> 100 µM	> 100 µM	> 100 µM	45.2 µM	39.7 µM	> 100 µM	82.7 µM	> 100 µM	> 100 µM	> 100 µM	> 100 µM	55.3 µM	> 100 µM	> 100 µM	> 100 µM	–	34.8 µM	> 100 µM
O=c1c2cc(-c3ccccc3)sc2nc2n1N=C(c1ccccc1)CS2	49.1 µM	–	48.4 µM	> 100 µM	34.6 µM	> 100 µM	> 100 µM	26.3 µM	> 100 µM	> 100 µM	> 100 µM	> 100 µM	–	> 100 µM	> 100 µM	> 100 µM	> 100 µM	89.1 µM	31.7 µM
